Like-named read-outs stand apart in the source and are kept apart here.
Legend:
Type in all cases: in vivo
Phytophthora infestans = settings: for Test D disease control rating: tomato late blight; for Test D disease control rating (100 = 100% disease control, 0 = no disease control): rating relative to controls
[1] = test system: Eiysiphe graminis f. sp. tritici; assay: Test A: wheat powdery mildew, preventive spray on wheat seedlings; settings: for Test A disease control rating: wheat powdery mildew; for Test A disease control rating (100 = 100% disease control, 0 = no disease control): rating relative to controls
Method in brief: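 Preventive test: seedlings inoculated with powdery mildew spores one day after run-off spraying of a suspension. Ratings after 7 days in a 20° C growth chamber express percent disease control versus controls.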

Puccinia recondita = assay: Test B: wheat leaf rust, preventive spray on wheat seedlings; settings: for Test B disease control rating: wheat leaf rust; for Test B disease control rating (100 = 100% disease control, 0 = no disease control): rating relative to controls
Method in brief: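 Preventive test: P. recondita spores were applied one day after a run-off spray of compound suspension on wheat seedlings. Plants had 24 h at 20 °C in saturated air plus 6 days in a 20 °C growth chamber. Scoring is % disease control (100 = full) relative to controls.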

Pyricularia oryzae = settings: for Test C disease control rating: rice blast; for Test C disease control rating (100 = 100% disease control, 0 = no disease control): rating relative to controls
Botrytis cinerea = assay: Test E: gray mold, preventive spray on cucumber seedlings; settings: for Test E disease control rating: gray mold on cucumber; for Test E disease control rating (100 = 100% disease control, 0 = no disease control): rating relative to controls
Method in brief: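 Preventive spray on cucumber seedlings used a suspension (3% acetone, 250 ppm Trem 014), applied to run-off one day before inoculation with Botrytis cinerea spores. Plants were held 48 h at 20° C in saturated air, then 5 days at 20° C. Percent disease control was scored relative to untreated plants.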

[2] = 100 = 100% disease control, 0 = no control, unmarked entries (standard test concentration)
[3] = 100 = 100% disease control, 0 = no control relative to controls, unmarked entries (standard test concentration)
[4] = tomato seedlings sprayed to run-off, inoculated the following day, unmarked compounds (standard test rate)
[5] = wheat seedlings sprayed to run-off, inoculated the following day, unmarked compounds (standard test rate)
[6] = rice seedlings sprayed to run-off, inoculated the following day, unmarked compounds (standard test rate)
[7] = cucumber seedlings sprayed to run-off, inoculated the following day, unmarked compounds (standard test rate)
[8] = tested at 40 ppm, wheat seedlings

Row | SMILES | Test D disease control rating (Phytophthora infestans; [2]) | Test A disease control rating [1, 3] | Test B disease control rating (Puccinia recondita; [2]) | Test C disease control rating (Pyricularia oryzae; [2]) | Test E disease control rating (Botrytis cinerea; [2]) | also measured
1 | C[C@H](COc1cccc(F)c1)NC(=O)C(C#N)C(C)(C)C (single isomer, unassigned) [3e] | 68% | 86% | 0% | 100% | 0% | –
2 | CC(COc1c(Cl)cccc1C#N)NC(=O)C(C#N)C(C)(C)C (mixture of isomers) [compound 210] | 0% | 0% | 0% | 91% | 0% | –
3 | CCC1(C(=O)NC(C)COc2cc(C(C)(C)C)ccc2C#N)C(C)C1(Cl)Cl (stereo not drawn) [compound 248] | – | – | – | – | – | Test D disease control rating (100 = 100% disease control, 0 = no disease control) (Phytophthora infestans; [4]): 62%; Test A disease control rating (100 = 100% disease control, 0 = no disease control) [1, 5]: 53%; Test B disease control rating (100 = 100% disease control, 0 = no disease control) (Puccinia recondita; [5]): 0%; Test C disease control rating (100 = 100% disease control, 0 = no disease control) (Pyricularia oryzae; [6]): 90%; Test E disease control rating (100 = 100% disease control, 0 = no disease control) (Botrytis cinerea; [7]): 83%
4 | CC(COc1c(F)ccc(F)c1F)NC(=O)C(C#N)C(C)(C)C (mixture of isomers) [compound 186] | 0% | 0% | 0% | 100% | 45% | –
5 | C=CC(C)(C)C(C#N)C(=O)NC(C)COc1cc(F)ccc1F (mixture of isomers) [compound 214] | 23% | 0% | 0% | 100% | 0% | –
6 | CC(COc1ccccc1)NC(=O)C(C#N)C(C)(C)C (mixture of isomers) [1a] | 0% | 60% | 0% | 53% | 0% | –
7 | CC(COc1cc(Cl)ccc1C#N)NC(=O)C(C#N)C(C)(C)C (mixture of isomers) [compound 43] | 66% | 0% | 0% | 86% | 0% | –
8 | C[C@H](COc1ccc(Cl)cc1Cl)NC(=O)C(C#N)C(C)(C)C (single isomer, unassigned) [32a] | 0% | 0% | 27% | 91% | 0% | –
9 | Cc1cccc(C#N)c1OCC(C)NC(=O)C(C#N)C(C)C(C)(C)C (mixture of isomers) [compound 280] | – | – | – | – | – | Test D disease control rating (100 = 100% disease control, 0 = no disease control) (Phytophthora infestans; [4]): 0%; Test A disease control rating (100 = 100% disease control, 0 = no disease control) [1, 5]: 56%; Test B disease control rating (100 = 100% disease control, 0 = no disease control) (Puccinia recondita; [5]): 0%; Test C disease control rating (100 = 100% disease control, 0 = no disease control) (Pyricularia oryzae; [6]): 74%; Test E disease control rating (100 = 100% disease control, 0 = no disease control) (Botrytis cinerea; [7]): 0%
10 | CCC(=CCNC(=O)C1(CC)C(C)C1(Cl)Cl)c1cc(Cl)ccc1Cl (stereo not drawn) [compound 262] | – | – | – | – | – | Test D disease control rating (100 = 100% disease control, 0 = no disease control) (Phytophthora infestans; [4]): 99%; Test A disease control rating (100 = 100% disease control, 0 = no disease control) [1, 5]: 98%; Test B disease control rating (100 = 100% disease control, 0 = no disease control) (Puccinia recondita; [5]): 0%; Test C disease control rating (100 = 100% disease control, 0 = no disease control) (Pyricularia oryzae; [6]): 53%; Test E disease control rating (100 = 100% disease control, 0 = no disease control) (Botrytis cinerea; [7]): 0%
11 | CCC1(C(=O)NC(C)COc2ccc(Cl)cc2)C(C)C1(Cl)Cl (mixture of isomers) [83b] | – | – | – | – | – | Test D disease control rating (Phytophthora infestans; tested at 40 ppm): 0%; Test A disease control rating ([1]; tested at 40 ppm): 52%; Test B disease control rating (Puccinia recondita; tested at 40 ppm): 0%; Test C disease control rating (Pyricularia oryzae; tested at 40 ppm): 53%; Test E disease control rating (Botrytis cinerea; tested at 40 ppm): 0%
12 | CCC1(C(=O)NC(C)COc2cccc(CF)c2)C(C)C1(Cl)Cl (mixture of isomers) [compound 317] | – | – | – | – | – | Test D disease control rating (100 = 100% disease control, 0 = no disease control) (Phytophthora infestans; tested at 40 ppm, tomato seedlings): 19%; Test A disease control rating (100 = 100% disease control, 0 = no disease control) [1, 8]: 57%; Test B disease control rating (100 = 100% disease control, 0 = no disease control) (Puccinia recondita; [8]): 0%; Test C disease control rating (100 = 100% disease control, 0 = no disease control) (Pyricularia oryzae; tested at 40 ppm, rice seedlings): 85%; Test E disease control rating (100 = 100% disease control, 0 = no disease control) (Botrytis cinerea; tested at 40 ppm, cucumber seedlings): 0%
13 | C[C@H](COc1cccc(F)c1)NC(=O)C(C#N)C(C)(C)C (single isomer, unassigned) [3d] | 99% | 92% | 0% | 100% | 0% | –
14 | CC(COc1ccccc1C(F)(F)F)NC(=O)C1(C)CC1(Cl)Cl (mixture of isomers) [compound 312] | – | – | – | – | – | Test D disease control rating (100 = 100% disease control, 0 = no disease control) (Phytophthora infestans; [4]): 82%; Test A disease control rating (100 = 100% disease control, 0 = no disease control) [1, 5]: 0%; Test B disease control rating (100 = 100% disease control, 0 = no disease control) (Puccinia recondita; [5]): 0%; Test C disease control rating (100 = 100% disease control, 0 = no disease control) (Pyricularia oryzae; [6]): 0%; Test E disease control rating (100 = 100% disease control, 0 = no disease control) (Botrytis cinerea; [7]): 0%
15 | CCc1ccccc1OCC(C)NC(=O)C1(CC)C(C)C1(Cl)Cl (stereo not drawn) [97b] | – | – | – | – | – | Test D disease control rating (Phytophthora infestans; tested at 40 ppm): 0%; Test A disease control rating ([1]; tested at 40 ppm): 71%; Test B disease control rating (Puccinia recondita; tested at 40 ppm): 0%; Test C disease control rating (Pyricularia oryzae; tested at 40 ppm): 53%; Test E disease control rating (Botrytis cinerea; tested at 40 ppm): 0%
16 | Cc1ccc(OC[C@@H](C)NC(=O)C(C#N)C(C)(C)C)c(Cl)c1 (single isomer, unassigned) [14b] | 23% | 61% | 0% | 86% | 0% | –
17 | CCC1(C(=O)NC(C)COc2ccccc2CC#N)C(C)C1(Cl)Cl (stereo not drawn) [compound 103] | 0% | 0% | 26% | 53% | 0% | –
18 | CCC1(C(=O)NC(C)COc2cc(Cl)ccc2Cl)C(C)C1(Cl)Cl (stereo not drawn) [compound 113] | – | – | – | – | – | Test D disease control rating (Phytophthora infestans; tested at 40 ppm): 19%; Test A disease control rating ([1]; tested at 40 ppm): 0%; Test B disease control rating (Puccinia recondita; tested at 40 ppm): 0%; Test C disease control rating (Pyricularia oryzae; tested at 40 ppm): 97%; Test E disease control rating (Botrytis cinerea; tested at 40 ppm): 0%
19 | C[C@H](COc1ccccc1C#N)NC(=O)C(C#N)C(C)(C)C (single isomer, unassigned) [13b] | 4% | 0% | 0% | 86% | 83% | –
20 | CC(C=Cc1ccc(F)cc1F)NC(=O)C(C#N)C(C)(C)C (mixture of isomers) [compound 309] | – | – | – | – | – | Test D disease control rating (100 = 100% disease control, 0 = no disease control) (Phytophthora infestans; [4]): 23%; Test A disease control rating (100 = 100% disease control, 0 = no disease control) [1, 5]: 86%; Test B disease control rating (100 = 100% disease control, 0 = no disease control) (Puccinia recondita; [5]): 0%; Test C disease control rating (100 = 100% disease control, 0 = no disease control) (Pyricularia oryzae; [6]): 91%; Test E disease control rating (100 = 100% disease control, 0 = no disease control) (Botrytis cinerea; [7]): 0%
21 | CC(COc1cccc(C(F)(F)F)c1C#N)NC(=O)C(C#N)C(C)C(C)(C)C (mixture of isomers) [compound 66] | 69% | 0% | 0% | 0% | 0% | –
22 | CCCc1cccc(C#N)c1OCC(C)NC(=O)C(C#N)C(C)C(C)(C)C (mixture of isomers) [compound 276] | – | – | – | – | – | Test D disease control rating (100 = 100% disease control, 0 = no disease control) (Phytophthora infestans; [4]): 0%; Test A disease control rating (100 = 100% disease control, 0 = no disease control) [1, 5]: 0%; Test B disease control rating (100 = 100% disease control, 0 = no disease control) (Puccinia recondita; [5]): 0%; Test C disease control rating (100 = 100% disease control, 0 = no disease control) (Pyricularia oryzae; [6]): 0%; Test E disease control rating (100 = 100% disease control, 0 = no disease control) (Botrytis cinerea; [7]): 94%
23 | CCC1(C(=O)NC(C)COc2c(F)cccc2C#N)C(C)C1(Cl)Cl (mixture of isomers) [compound 128] | 13% | 86% | 0% | 74% | 0% | –
24 | C[C@H](COc1cccc(Br)c1)NC(=O)C(C#N)C(C)(C)C (single isomer, unassigned) [9b] | 28% | 62% | 68% | 99% | 0% | –
25 | C[C@H](COc1cc(Cl)cc(Cl)c1)NC(=O)C(C#N)C(C)(C)C (single isomer, unassigned) [35a] | 80% | 0% | 0% | 74% | 0% | –
26 | CCC1(C(=O)NC(C)COc2ccccc2C(F)(F)F)C(C)C1(Cl)Cl (mixture of isomers) [94a] | 0% | 0% | 0% | 0% | 0% | –
27 | CCC1(C(=O)NC(C)COc2cc(F)cc(F)c2C#N)C(C)C1(Cl)Cl (mixture of isomers) [compound 135] | 2% | 0% | 0% | 53% | 0% | –
